# In ChEMBL document CHEMBL1153040, “HIF-1alpha peptide derivatives with modifications at the hydroxyproline residue as activators of HIF-1alpha” (Bioorg Med Chem Lett, 2009):
# pKi: −log10 of the molar value. The source made the active and inactive calls. The rule behind the calls is not given here.
# Target: Hypoxia-inducible factor 1-alpha (Homo sapiens, UniProt Q16665)
# Experiment: Inhibition of interaction between fluorescein-labeled proline hydroxylated human HIFalpha (556 to 575) and human VHL-human elongin B-human elongin C complex expressed in Escherichia coli by fluorescence polarization assay
# Hypoxia-inducible factor 1-alpha, sequence (Q16665 whole entry): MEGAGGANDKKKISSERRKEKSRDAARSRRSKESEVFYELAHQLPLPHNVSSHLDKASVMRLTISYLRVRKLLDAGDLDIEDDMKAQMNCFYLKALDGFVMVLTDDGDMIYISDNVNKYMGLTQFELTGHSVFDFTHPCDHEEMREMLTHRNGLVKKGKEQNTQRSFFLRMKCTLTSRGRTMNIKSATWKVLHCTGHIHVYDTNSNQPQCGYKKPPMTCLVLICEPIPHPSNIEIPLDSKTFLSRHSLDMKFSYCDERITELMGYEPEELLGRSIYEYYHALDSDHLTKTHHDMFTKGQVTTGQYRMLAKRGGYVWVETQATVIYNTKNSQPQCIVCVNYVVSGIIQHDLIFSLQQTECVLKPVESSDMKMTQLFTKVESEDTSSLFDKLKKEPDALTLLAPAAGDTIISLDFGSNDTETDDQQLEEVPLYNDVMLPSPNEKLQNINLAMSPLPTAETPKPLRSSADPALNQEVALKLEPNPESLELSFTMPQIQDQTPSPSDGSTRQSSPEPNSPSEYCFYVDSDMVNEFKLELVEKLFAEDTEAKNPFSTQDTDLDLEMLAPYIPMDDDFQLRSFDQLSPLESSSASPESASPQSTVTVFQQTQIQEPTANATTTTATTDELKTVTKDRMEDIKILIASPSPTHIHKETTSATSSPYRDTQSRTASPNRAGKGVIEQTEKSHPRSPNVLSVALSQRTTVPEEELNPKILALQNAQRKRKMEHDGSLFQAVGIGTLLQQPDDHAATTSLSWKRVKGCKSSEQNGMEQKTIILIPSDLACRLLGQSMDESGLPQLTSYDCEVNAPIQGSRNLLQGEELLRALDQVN
row,pKi,Compound
1,4.74,CC[C@@H](C)[C@H](NC(=O)[C@H](Cc1ccc(O)cc1)NC(=O)[C@@H](NC(=O)[C@H](C)NC(=O)[C@H](CC(C)C)NC(=O)[C@H](C)NC(=O)[C@H](CCC(=O)O)NC(=O)[C@H](CC(C)C)NC(=O)[C@H](CC(=O)O)NC(=O)[C@H](CC(C)C)NC(=O)[C@@H](N)CC(=O)O)[C@H](C)O)C(=O)N1CCC[C@H]1C(=O)N[C@@H](C)C(=O)N[C@@H](CC(=O)O)C(=O)N[C@@H](CC(=O)O)C(=O)N[C@@H](CC(=O)O)C(=O)N[C@@H](Cc1ccccc1)C(=O)N[C@@H](CCC(N)=O)C(=O)N[C@@H](CC(C)C)C(=O)N[C@@H](CCCN=C(N)N)C(N)=O
2,5.47,CC[C@@H](C)[C@H](NC(=O)[C@H](Cc1ccc(O)cc1)NC(=O)[C@H](CCO)NC(=O)[C@H](C)NC(=O)[C@H](CC(C)C)NC(=O)[C@H](C)NC(=O)[C@H](CCC(=O)O)NC(=O)[C@H](CC(C)C)NC(=O)[C@H](CC(=O)O)NC(=O)[C@H](CC(C)C)NC(=O)[C@@H](N)CC(=O)O)C(=O)N1CCC[C@H]1C(=O)N[C@@H](C)C(=O)N[C@@H](CC(=O)O)C(=O)N[C@@H](CC(=O)O)C(=O)N[C@@H](CC(=O)O)C(=O)N[C@@H](Cc1ccccc1)C(=O)N[C@@H](CCC(N)=O)C(=O)N[C@@H](CC(C)C)C(=O)N[C@@H](CCCN=C(N)N)C(N)=O
3,3.96,CC[C@@H](C)[C@H](NC(=O)[C@H](Cc1ccc(O)cc1)NC(=O)[C@H](CCN)NC(=O)[C@H](C)NC(=O)[C@H](CC(C)C)NC(=O)[C@H](C)NC(=O)[C@H](CCC(=O)O)NC(=O)[C@H](CC(C)C)NC(=O)[C@H](CC(=O)O)NC(=O)[C@H](CC(C)C)NC(=O)[C@@H](N)CC(=O)O)C(=O)N1CCC[C@H]1C(=O)N[C@@H](C)C(=O)N[C@@H](CC(=O)O)C(=O)N[C@@H](CC(=O)O)C(=O)N[C@@H](CC(=O)O)C(=O)N[C@@H](Cc1ccccc1)C(=O)N[C@@H](CCC(N)=O)C(=O)N[C@@H](CC(C)C)C(=O)N[C@@H](CCCN=C(N)N)C(N)=O
4,4.24,CC[C@@H](C)[C@H](NC(=O)[C@H](Cc1ccc(O)cc1)NC(=O)[C@H](CC(C)C)NC(=O)[C@H](C)NC(=O)[C@H](CC(C)C)NC(=O)[C@H](C)NC(=O)[C@H](CCC(=O)O)NC(=O)[C@H](CC(C)C)NC(=O)[C@H](CC(=O)O)NC(=O)[C@H](CC(C)C)NC(=O)[C@@H](N)CC(=O)O)C(=O)N1CCC[C@H]1C(=O)N[C@@H](C)C(=O)N[C@@H](CC(=O)O)C(=O)N[C@@H](CC(=O)O)C(=O)N[C@@H](CC(=O)O)C(=O)N[C@@H](Cc1ccccc1)C(=O)N[C@@H](CCC(N)=O)C(=O)N[C@@H](CC(C)C)C(=O)N[C@@H](CCCNC(=N)N)C(N)=O
5,5.24,CC[C@@H](C)[C@H](NC(=O)[C@H](Cc1ccc(O)cc1)NC(=O)[C@@H]1C[C@@H](F)CN1C(=O)[C@H](C)NC(=O)[C@H](CC(C)C)NC(=O)[C@H](C)NC(=O)[C@H](CCC(=O)O)NC(=O)[C@H](CC(C)C)NC(=O)[C@H](CC(=O)O)NC(=O)[C@H](CC(C)C)NC(=O)[C@@H](N)CC(=O)O)C(=O)N1CCC[C@H]1C(=O)N[C@@H](C)C(=O)N[C@@H](CC(=O)O)C(=O)N[C@@H](CC(=O)O)C(=O)N[C@@H](CC(=O)O)C(=O)N[C@@H](Cc1ccccc1)C(=O)N[C@@H](CCC(N)=O)C(=O)N[C@@H](CC(C)C)C(=O)N[C@@H](CCCNC(=N)N)C(N)=O
6,4.89,CC[C@@H](C)[C@H](NC(=O)[C@H](Cc1ccc(O)cc1)NC(=O)[C@H](CC(N)=O)NC(=O)[C@H](C)NC(=O)[C@H](CC(C)C)NC(=O)[C@H](C)NC(=O)[C@H](CCC(=O)O)NC(=O)[C@H](CC(C)C)NC(=O)[C@H](CC(=O)O)NC(=O)[C@H](CC(C)C)NC(=O)[C@@H](N)CC(=O)O)C(=O)N1CCC[C@H]1C(=O)N[C@@H](C)C(=O)N[C@@H](CC(=O)O)C(=O)N[C@@H](CC(=O)O)C(=O)N[C@@H](CC(=O)O)C(=O)N[C@@H](Cc1ccccc1)C(=O)N[C@@H](CCC(N)=O)C(=O)N[C@@H](CC(C)C)C(=O)N[C@@H](CCCNC(=N)N)C(N)=O
7,5.43,CC[C@@H](C)[C@H](NC(=O)[C@H](Cc1ccc(O)cc1)NC(=O)[C@@H]1C[C@@H](O)CN1C(=O)[C@H](C)NC(=O)[C@H](CC(C)C)NC(=O)[C@H](C)NC(=O)[C@H](CCC(=O)O)NC(=O)[C@H](CC(C)C)NC(=O)[C@H](CC(=O)O)NC(=O)[C@H](CC(C)C)NC(=O)[C@@H](N)CC(=O)O)C(=O)N1CCC[C@H]1C(=O)N[C@@H](C)C(=O)N[C@@H](CC(=O)O)C(=O)N[C@@H](CC(=O)O)C(=O)N[C@@H](CC(=O)O)C(=O)N[C@@H](Cc1ccccc1)C(=O)N[C@@H](CCC(N)=O)C(=O)N[C@@H](CC(C)C)C(=O)N[C@@H](CCCN=C(N)N)C(N)=O
8,< 3.30,CC[C@@H](C)[C@H](NC(=O)[C@H](Cc1ccc(O)cc1)NC(=O)[C@@H]1CCCN1C(=O)[C@H](C)NC(=O)[C@H](CC(C)C)NC(=O)[C@H](C)NC(=O)[C@H](CCC(=O)O)NC(=O)[C@H](CC(C)C)NC(=O)[C@H](CC(=O)O)NC(=O)[C@H](CC(C)C)NC(=O)[C@@H](N)CC(=O)O)C(=O)N1CCC[C@H]1C(=O)N[C@@H](C)C(=O)N[C@@H](CC(=O)O)C(=O)N[C@@H](CC(=O)O)C(=O)N[C@@H](CC(=O)O)C(=O)N[C@@H](Cc1ccccc1)C(=O)N[C@@H](CCC(N)=O)C(=O)N[C@@H](CC(C)C)C(=O)N[C@@H](CCCNC(=N)N)C(N)=O
9,4.30,CC[C@@H](C)[C@H](NC(=O)[C@H](C)NC(=O)[C@H](CC(C)C)NC(=O)[C@H](C)NC(=O)[C@H](CCC(=O)O)NC(=O)[C@H](CC(C)C)NC(=O)[C@H](CC(=O)O)NC(=O)[C@H](CC(C)C)NC(=O)[C@@H](N)CC(=O)O)C(=O)N[C@@H](Cc1ccc(O)cc1)C(=O)N[C@H](C(=O)N1CCC[C@H]1C(=O)N[C@@H](C)C(=O)N[C@@H](CC(=O)O)C(=O)N[C@@H](CC(=O)O)C(=O)N[C@@H](CC(=O)O)C(=O)N[C@@H](Cc1ccccc1)C(=O)N[C@@H](CCC(N)=O)C(=O)N[C@@H](CC(C)C)C(=O)N[C@@H](CCCN=C(N)N)C(N)=O)[C@H](C)CC
10,4.80,CC[C@@H](C)[C@H](NC(=O)[C@H](Cc1ccc(O)cc1)NC(=O)[C@@H](NC(=O)[C@H](C)NC(=O)[C@H](CC(C)C)NC(=O)[C@H](C)NC(=O)[C@H](CCC(=O)O)NC(=O)[C@H](CC(C)C)NC(=O)[C@H](CC(=O)O)NC(=O)[C@H](CC(C)C)NC(=O)[C@@H](N)CC(=O)O)C(C)C)C(=O)N1CCC[C@H]1C(=O)N[C@@H](C)C(=O)N[C@@H](CC(=O)O)C(=O)N[C@@H](CC(=O)O)C(=O)N[C@@H](CC(=O)O)C(=O)N[C@@H](Cc1ccccc1)C(=O)N[C@@H](CCC(N)=O)C(=O)N[C@@H](CC(C)C)C(=O)N[C@@H](CCCNC(=N)N)C(N)=O
11,4.82,CC[C@@H](C)[C@H](NC(=O)[C@H](Cc1ccc(O)cc1)NC(=O)[C@H](CC(=O)O)NC(=O)[C@H](C)NC(=O)[C@H](CC(C)C)NC(=O)[C@H](C)NC(=O)[C@H](CCC(=O)O)NC(=O)[C@H](CC(C)C)NC(=O)[C@H](CC(=O)O)NC(=O)[C@H](CC(C)C)NC(=O)[C@@H](N)CC(=O)O)C(=O)N1CCC[C@H]1C(=O)N[C@@H](C)C(=O)N[C@@H](CC(=O)O)C(=O)N[C@@H](CC(=O)O)C(=O)N[C@@H](CC(=O)O)C(=O)N[C@@H](Cc1ccccc1)C(=O)N[C@@H](CCC(N)=O)C(=O)N[C@@H](CC(C)C)C(=O)N[C@@H](CCCNC(=N)N)C(N)=O
12,4.11,CC[C@@H](C)[C@H](NC(=O)[C@H](Cc1ccc(O)cc1)NC(=O)[C@@H]1CCCCN1C(=O)[C@H](C)NC(=O)[C@H](CC(C)C)NC(=O)[C@H](C)NC(=O)[C@H](CCC(=O)O)NC(=O)[C@H](CC(C)C)NC(=O)[C@H](CC(=O)O)NC(=O)[C@H](CC(C)C)NC(=O)[C@@H](N)CC(=O)O)C(=O)N1CCC[C@H]1C(=O)N[C@@H](C)C(=O)N[C@@H](CC(=O)O)C(=O)N[C@@H](CC(=O)O)C(=O)N[C@@H](CC(=O)O)C(=O)N[C@@H](Cc1ccccc1)C(=O)N[C@@H](CCC(N)=O)C(=O)N[C@@H](CC(C)C)C(=O)N[C@@H](CCCN=C(N)N)C(N)=O

# Tested on: HeLa
# Experiment: Induction of HIFalpha stabilization in human HeLa cells assessed as HIFalpha accumulation at 1 mM incubated under normoxic condition for 6 hrs by Western blot analysis
# Type: functional, cell-based
row,Compound,Activity
1,CC[C@@H](C)[C@H](NC(=O)[C@H](Cc1ccc(O)cc1)NC(=O)[C@H](CC(C)C)NC(=O)[C@H](C)NC(=O)[C@H](CC(C)C)NC(=O)[C@H](C)NC(=O)[C@H](CCC(=O)O)NC(=O)[C@H](CC(C)C)NC(=O)[C@H](CC(=O)O)NC(=O)[C@H](CC(C)C)NC(=O)[C@@H](N)CC(=O)O)C(=O)N1CCC[C@H]1C(=O)N[C@@H](C)C(=O)N[C@@H](CC(=O)O)C(=O)N[C@@H](CC(=O)O)C(=O)N[C@@H](CC(=O)O)C(=O)N[C@@H](Cc1ccccc1)C(=O)N[C@@H](CCC(N)=O)C(=O)N[C@@H](CC(C)C)C(=O)N[C@@H](CCCNC(=N)N)C(N)=O,inactive
2,CC[C@@H](C)[C@H](NC(=O)[C@H](Cc1ccc(O)cc1)NC(=O)[C@@H]1C[C@@H](F)CN1C(=O)[C@H](C)NC(=O)[C@H](CC(C)C)NC(=O)[C@H](C)NC(=O)[C@H](CCC(=O)O)NC(=O)[C@H](CC(C)C)NC(=O)[C@H](CC(=O)O)NC(=O)[C@H](CC(C)C)NC(=O)[C@@H](N)CC(=O)O)C(=O)N1CCC[C@H]1C(=O)N[C@@H](C)C(=O)N[C@@H](CC(=O)O)C(=O)N[C@@H](CC(=O)O)C(=O)N[C@@H](CC(=O)O)C(=O)N[C@@H](Cc1ccccc1)C(=O)N[C@@H](CCC(N)=O)C(=O)N[C@@H](CC(C)C)C(=O)N[C@@H](CCCNC(=N)N)C(N)=O,Active
3,CC[C@@H](C)[C@H](NC(=O)[C@H](Cc1ccc(O)cc1)NC(=O)[C@H](CCO)NC(=O)[C@H](C)NC(=O)[C@H](CC(C)C)NC(=O)[C@H](C)NC(=O)[C@H](CCC(=O)O)NC(=O)[C@H](CC(C)C)NC(=O)[C@H](CC(=O)O)NC(=O)[C@H](CC(C)C)NC(=O)[C@@H](N)CC(=O)O)C(=O)N1CCC[C@H]1C(=O)N[C@@H](C)C(=O)N[C@@H](CC(=O)O)C(=O)N[C@@H](CC(=O)O)C(=O)N[C@@H](CC(=O)O)C(=O)N[C@@H](Cc1ccccc1)C(=O)N[C@@H](CCC(N)=O)C(=O)N[C@@H](CC(C)C)C(=O)N[C@@H](CCCNC(=N)N)C(N)=O,Active
4,CC[C@@H](C)[C@H](NC(=O)[C@H](Cc1ccc(O)cc1)NC(=O)[C@@H]1C[C@@H](O)CN1C(=O)[C@H](C)NC(=O)[C@H](CC(C)C)NC(=O)[C@H](C)NC(=O)[C@H](CCC(=O)O)NC(=O)[C@H](CC(C)C)NC(=O)[C@H](CC(=O)O)NC(=O)[C@H](CC(C)C)NC(=O)[C@@H](N)CC(=O)O)C(=O)N1CCC[C@H]1C(=O)N[C@@H](C)C(=O)N[C@@H](CC(=O)O)C(=O)N[C@@H](CC(=O)O)C(=O)N[C@@H](CC(=O)O)C(=O)N[C@@H](Cc1ccccc1)C(=O)N[C@@H](CCC(N)=O)C(=O)N[C@@H](CC(C)C)C(=O)N[C@@H](CCCNC(=N)N)C(N)=O,Active
